# Assay results: patent US6730655B2, “Biphenyl diquaternary ammonium compounds” (Ciba Specialty Chemicals Corporation, priority 2000, dated 2004)
# Legend:
# [1] = tested on: Escherichia coli NCTC 8196; conditions: Mueller Hinton agar, 2 days at 37° C.
# Text: (§1) Determination of the Minimum Inhibitory Concentration (MIC Value)
# (§2) The procedure to determine the antimicrobial activity of the compounds of the invention is as follows:
# (§3) Casein/soybean flour peptone bouillon for the preparation of pre-cultures of the test bacteria and yeast.
# (§4) Mueller Hinton agar for determining the MIC value of bacteria.
# (§5) deionised water or EtOH as solvent.
# (§6) The test substances are predissolved in deionised water or in ethanol and incorporated in a dilution series in agar warmed to 47-50° C.
# (§7) Bacteria and yeast are incubated for from 18 to 24 hours at 37° C. in casein/soybean flour peptone bouillon.
# (§8) All the test organisms are adjusted to an organism count of from 10^6 to 10^7 CFU/ml using 0.85% sodium chloride solution.
# (§9) The organism suspensions are each pipetted in an amount of 10 μl onto an agar plate containing the test substance. The test batches are then incubated for 2 days at 37° C. (bacteria and yeast) or for 3 days at 28° C. (Aspergillus niger). In order to check the influence of the solvent used (deionised water, ethanol), organism suspensions are in addition incubated on agar plates without test substances (control plates).
# (§10) After incubation, the growth of the microorganisms on the test substances is compared with the control plates. The minimum inhibitory concentration (MIC value) is the concentration of substance at which (compared with the control plates) a clear inhibition of growth of the test organisms is to be ascertained.
# (§11) The microbiological data ascertained are compiled in Table 1.
# [2] = tested on: Staphylococcus hominis DSM 20328; conditions: Mueller Hinton agar, 2 days at 37° C.
# Text: as §1, §2, §3, §4, §5, §6, §7, §8, §9, §10, §11
# [3] = tested on: Staphylococcus aureus ATCC 6538; conditions: test substance 1600 ppm, contact time 5 minutes at 20° C., 0.3% bovine serum albumin
# Procedure: Suspension Test to Determine the Bactericidal Activity in Accordance with the European Standard According to EN 1276
# Staphylococcus aureus ATCC 6538.
# 5 minutes at 20° C. (+/−1° C.).
# Inactivation Medium After the Contact Time
# D/E neutralisation solution (Dey-Engley, consisting of 0.1% sodium thioglycolate,
# 0.5% Tween 80, and also 0.7% lecithin and sterile, deionised water ad 100%).
# Casein/soybean flour peptone agar with lecithin, L-histidine, and Tween 80 as inactivating agent
# (Merckoplate No. 18360, Merck-Darmstadt).
# Incubation of the Test Plates
# Precaration of the Pre-Culture
# The bacteria cultures are cultured on casein/soybean flour peptone slant agar and incubated for from 18 to 24 hours at 37° C. They are then rinsed off with water and adjusted to a bacteria count of 1.5×10^8-5×10^8 CFU/ml.
# All of the reagents required for the test are first equilibrated at 20° C. (+/−1° C.). 1.0 ml of 0.3% bovine serum albumin (in deionised water) is introduced into a test tube. After the addition of 1.0 ml of bacteria suspension (1.5×10^8-5×10^8 CFU/ml), the solution is mixed and maintained at 20° C. for 2 minutes (+/−10 seconds). 8.0 ml of the test substance (2000 ppm solution in water) are then added. The mixture is incubated for 5 minutes at 20° C. (+/−1° C.). […] After the period of incubation, the number of colonies is counted and quoted as a logarithmic reduction (log 10) of the bacteria.
# [4] = tested on: Aspergillus niger ATCC 6275; conditions: Sabouraud agar, 3 days at 28° C.
# Procedure: as §1, §2
# Sabouraud agar for the pre-culture of Aspergillus niger.
# (§12) Sabouraud agar for determining the MIC value of Aspergillus niger and Candida albicans.
# as §5, §6
# The mould is cultured on Sabouraud agar and rinsed off with 0.85% sodium chloride solution containing 0.01% Triton X-100.
# as §8, §9, §10, §11
# [5] = tested on: Candida albicans ATCC 10231; conditions: Sabouraud agar, 2 days at 37° C.
# Text: as §1, §2, §3, §12, §5, §6, §7, §8, §9, §10, §11
Compound,MIC values E. coli [1] [ppm],MIC values S. hominis [2] [ppm],Logarithmic reduction Staphylococcus aureus [3] [log 10],MIC values A. niger [4] [ppm],MIC values C. albicans [5] [ppm]
"CCCCCC[N+](C)(C)Cc1ccc(-c2ccc(C[N+](C)(C)CCCCCC)cc2)cc1.[Cl-].[Cl-] [Compound of formula (2), 4,4′-Bis(N,N-dimethyl-N-hexyl-ammoniummethyl)biphenyl dichloride]",5,50,5.6,2.5,50
"CCCCCCCC[N+](C)(C)Cc1ccc(-c2ccc(C[N+](C)(C)CCCCCCCC)cc2)cc1.[Cl-].[Cl-] [Compound of formula (3), 4,4′-Bis(N,N-dimethyl-N-octyl-ammoniummethyl)biphenyl dichloride]",1,5,5.6,2.5,10
"CCCCCCCCCCCC[N+](C)(C)Cc1ccc(-c2ccc(C[N+](C)(C)CCCCCCCCCCCC)cc2)cc1.[Cl-].[Cl-] [Compound of formula (4), 4,4′-Bis(N,N-dimethyl-N-dodecyl-ammoniummethyl)biphenyl dichloride]",250,10,,100,25
"CCCCCCCCCCCCCCCC[N+](C)(C)Cc1ccc(-c2ccc(C[N+](C)(C)CCCCCCCCCCCCCCCC)cc2)cc1.[Cl-].[Cl-] [Compound of formula (5), 4,4′-Bis(N,N-dimethyl-N-hexadecyl-ammoniummethyl)biphenyl dichloride]",1000,100,,1000,500
